How the values were obtained:
[1] = biological target: T1, PTPN2 (B16F10.4 cells) (Mus musculus, UniProt Q06180); assay: HiBiT Degradation B16F10.4 PTPN2; type: cell-based; settings: 24.0 hours
T1 construct: HiBiT; host or cells: B16F10.4
T1 sequence (Q06180 1-406): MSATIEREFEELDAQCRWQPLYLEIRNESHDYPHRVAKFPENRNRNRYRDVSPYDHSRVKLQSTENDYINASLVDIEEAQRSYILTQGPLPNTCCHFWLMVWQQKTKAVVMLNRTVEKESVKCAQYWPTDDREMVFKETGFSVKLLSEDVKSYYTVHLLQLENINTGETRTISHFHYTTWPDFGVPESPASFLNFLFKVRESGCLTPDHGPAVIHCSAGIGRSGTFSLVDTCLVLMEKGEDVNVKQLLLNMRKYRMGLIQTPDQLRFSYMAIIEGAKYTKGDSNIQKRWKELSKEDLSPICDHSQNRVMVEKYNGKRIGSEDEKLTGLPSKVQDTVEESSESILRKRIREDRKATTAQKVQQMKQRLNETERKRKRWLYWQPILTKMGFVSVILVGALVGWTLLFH

[2] = biological target: T2, PTPN2 (HiBIT-PTPN2 in 293T.109 cells) (Homo sapiens, UniProt P17706); assay: HiBiT Degradation 293T.109 PTPN2 (Nano-Glo HiBiT Lytic Assay); type: cell-based; settings: 24.0 hours
T2 construct: expressed in transfected cells; host or cells: 293T.109 (293T WT from ATCC)
T2 sequence (P17706 1-415): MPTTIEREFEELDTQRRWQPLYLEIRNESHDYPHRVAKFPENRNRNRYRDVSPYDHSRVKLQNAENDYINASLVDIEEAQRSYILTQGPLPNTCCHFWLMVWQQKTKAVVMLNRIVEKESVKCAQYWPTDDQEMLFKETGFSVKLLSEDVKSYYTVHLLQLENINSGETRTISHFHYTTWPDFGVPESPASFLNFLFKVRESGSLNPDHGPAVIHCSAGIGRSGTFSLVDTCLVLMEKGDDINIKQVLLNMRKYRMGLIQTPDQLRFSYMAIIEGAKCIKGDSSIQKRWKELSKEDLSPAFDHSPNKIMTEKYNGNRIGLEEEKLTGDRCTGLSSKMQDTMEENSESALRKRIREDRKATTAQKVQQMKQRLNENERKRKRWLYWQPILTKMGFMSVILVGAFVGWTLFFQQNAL
Summary of the method: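 Degradation read-out: lytic HiBiT luminescence after 24 h treatment (37 °C, 5% CO2) of 5000 293T cells per well expressing HiBiT-fused PTPN2 from an N-terminal tag. Dosing was 11 points, half-log steps down from 10 μM, in duplicate; vehicle-treated and no-reagent wells served as controls.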

DC50 [1] [nM]	DC50 [2] [nM]	SMILES
≥ 1000	≥ 1000	CN(c1cccc(-c2sc(C(=O)O)c(OCC(=O)O)c2Cl)c1)C1CCN(S(=O)(=O)Cc2cccc(NC(=O)CCn3cc(CNc4cccc5c4C(=O)N(C4CCC(=O)NC4=O)C5=O)nn3)c2)CC1 (centres unmarked) [Example 17, 3-(carboxymethoxy)-4-chloro-5-(3-((1-((3-(3-(4-(((2-(2,6-dioxopiperidin-3-yl)-1,3-dioxoisoindolin-4-yl)amino)methyl)-1H-1,2,3-triazol-1-yl)propanamido)benzyl)sulfonyl)piperidin-4-yl)(methyl)amino)phenyl)thiophene-2-carboxylic acid]
< 50	200 to 1000	CC1(C)C[C@H](Nc2cccc(-c3sc(C(=O)O)c(OCC(=O)O)c3Cl)c2)CCN1S(=O)(=O)Cc1cccc(NC(=O)N2CCC(c3ccc4c5c(cccc35)C(=O)N4C3CCC(=O)NC3=O)CC2)c1F (stereo partly drawn) [Example 129, 3-(carboxymethoxy)-4-chloro-5-(3-(((4R)-1-((3-(4-(1-(2,6-dioxopiperidin-3-yl)-2-oxo-1,2-dihydrobenzo[cd]indol-6-yl)piperidine-1-carboxamido)-2-fluorobenzyl)sulfonyl)-2,2-dimethylpiperidin-4-yl)amino)phenyl)thiophene-2-carboxylic acid]
50 to 200	50 to 200	Cn1c(=O)n(C2CCC(=O)NC2=O)c2ccc(N3CCN(C(=O)Nc4cccc(CS(=O)(=O)N5CC[C@H](Nc6cccc(-c7sc(C(=O)O)c(OCC(=O)O)c7Cl)c6)CC5(C)C)c4)CC3)cc21 (stereo partly drawn) [Example 80, 3-(Carboxymethoxy)-4-chloro-5-[3-[[(4S)-1-[[3-[[4-[1-(2,6-dioxo-3-piperidyl)-3-methyl-2-oxo-benzimidazol-5-yl]piperazine-1-carbonyl]amino]phenyl]methylsulfonyl]-2,2-dimethyl-4-piperidyl]amino]phenyl]thiophene-2-carboxylic acid]
200 to 1000	< 50	CC1(C)C[C@@H](Nc2cccc(-c3sc(C(=O)O)c(OCC(=O)O)c3Cl)c2F)CCN1S(=O)(=O)Cc1ccc(F)c(NC(=O)C2CN(C(=O)CNc3cccc4c3CN([C@@H]3CCC(=O)NC3=O)C4=O)C2)c1 (single isomer, unassigned) [Example 148a]
50 to 200	200 to 1000	CC1(C)C[C@@H](Nc2cccc(-c3sc(C(=O)O)c(OCC(=O)O)c3Cl)c2)CCN1S(=O)(=O)Cc1cccc(NC(=O)N2CCC[C@H](c3ccc4c5c(cccc35)N(C3CCC(=O)NC3=O)C4=O)CC2)c1 (stereo partly drawn) [Example 223, 3-(carboxymethoxy)-4-chloro-5-(3-(((4S)-1-((3-((4S)-4-(1-(2,6-dioxopiperidin-3-yl)-2-oxo-1,2-dihydrobenzo[cd]indol-5-yl)azepane-1-carboxamido)benzyl)sulfonyl)-2,2-dimethylpiperidin-4-yl)amino)phenyl)thiophene-2-carboxylic acid]
50 to 200	50 to 200	CC1(C)C[C@@H](Nc2cccc(-c3sc(C(=O)O)c(OCC(=O)O)c3Cl)c2)CCN1S(=O)(=O)Cc1cccc(NC(=O)NCCCc2ccc3c4c(cccc24)N(C2CCC(=O)NC2=O)C3=O)c1 (stereo partly drawn) [Example 177, 3-(carboxymethoxy)-4-chloro-5-[3-[[(4S)-1-[3-[3-[[1-(2,6-dioxo-3-piperidyl)-2-oxo-benzo[cd]indol-5-yl]propylcarbamoylamino]phenyl]methylsulfonyl]-2,2-dimethyl-4-piperidyl]amino]phenyl]thiophene-2-carboxylic acid]
≥ 1000	50 to 200	O=C(O)COc1c(C(=O)O)sc(-c2cccc(NC3CCN(S(=O)(=O)Cc4ccc(F)c(NC(=O)C5CCN(C(=O)CNc6cccc7c6CN(C6CCC(=O)NC6=O)C7=O)CC5)c4)CC3)c2)c1Cl (centres unmarked) [Example 77]
≥ 1000	200 to 1000	CC1(C)C[C@@H](Nc2cccc(-c3sc(C(=O)O)c(OCC(=O)O)c3Cl)c2)CCN1S(=O)(=O)Cc1cccc(NC(=O)C2C[C@@H]3CN(C(=O)CNc4cccc5c4CN(C4CCC(=O)NC4=O)C5=O)C[C@@H]3C2)c1 (stereo partly drawn) [Example 97, 5-[3-[[(4S)-1-[[3-[[(3aR,6aS)-2-[2-[[2-(2,6-dioxo-3-piperidyl)-1-oxo-isoindolin-4-yl]amino]acetyl]-3,3a,4,5,6,6a-hexahydro-1H-cyclopenta[c]pyrrole-S-carbonyl]amino]phenyl]methylsulfonyl]-2,2-dimethyl-4-piperidyl]amino]phenyl]-3-(carboxymethoxy)-4-chloro-thiophene-2-carboxylic acid]
≥ 1000	200 to 1000	O=C(O)COc1c(C(=O)O)sc(-c2cccc(NC3CCN(S(=O)(=O)Cc4cccc(NC(=O)CCCCNC(=O)CNc5cccc6c5CN(C5CCC(=O)NC5=O)C6=O)c4)CC3)c2)c1Cl (centres unmarked) [Example 22, 3-(carboxymethoxy)-4-chloro-5-(3-((1-((3-(5-(2-((2-(2,6-dioxopiperidin-3-yl)-1-oxoisoindolin-4-yl)amino)acetamido)pentanamido)benzyl)sulfonyl)piperidin-4-yl)amino)phenyl)thiophene-2-carboxylic acid]
≥ 1000	200 to 1000	O=C(O)COc1c(C(=O)O)sc(-c2cccc(NC3CCN(S(=O)(=O)Cc4cccc(NC(=O)C5CCN(C(=O)CNc6cccc7c6C(=O)N(C6CCC(=O)NC6=O)C7=O)CC5)c4)CC3)c2)c1Cl (centres unmarked) [Example 16]
50 to 200	50 to 200	Cn1c(=O)n(C2CCC(=O)NC2=O)c2ccc(NC3CCN(C(=O)Nc4cccc(CS(=O)(=O)N5CC[C@H](Nc6cccc(-c7sc(C(=O)O)c(OCC(=O)O)c7Cl)c6)CC5(C)C)c4)CC3)cc21 (stereo partly drawn) [Example 81, 3-(carboxymethoxy)-4-chloro-5-[3-[[(4S)-1-[[3-[[4-[[1-(2,6-dioxo-3-piperidyl)-3-methyl-2-oxo-benzimidazol-5-yl]amino]piperidine-1-carbonyl]amino]phenyl]methylsulfonyl]-2,2-dimethyl-4-piperidyl]amino]phenyl]thiophene-2-carboxylic acid]
≥ 1000	200 to 1000	CC1(C)C[C@@H](Nc2cccc(-c3sc(C(=O)O)c(OCC(=O)O)c3Cl)c2)CCN1S(=O)(=O)Cc1cccc(NC(=O)N2CCC(n3c(=O)n(C4CCC(=O)NC4=O)c4ccccc43)CC2)c1 (stereo partly drawn) [Example 124, 3-(carboxymethoxy)-4-chloro-5-[3-[[(4S)-1-[[3-[[4-[3-(2,6-dioxo-3-piperidyl)-2-oxo-benzimidazol-1-yl]piperidine-1-carbonyl]amino]phenyl]methylsulfonyl]-2,2-dimethyl-4-piperidyl]amino]phenyl]thiophene-2-carboxylic acid]
50 to 200	50 to 200	CC1(C)C[C@@H](Nc2cccc(-c3sc(C(=O)O)c(OCC(=O)O)c3Cl)c2)CCN1S(=O)(=O)Cc1cccc(NC(=O)N2CCC(c3ccc4c(c3)n(CC(F)(F)F)c(=O)n4C3CCC(=O)NC3=O)CC2)c1 (stereo partly drawn) [Example 155, 3-(carboxymethoxy)-4-chloro-5-[3-[[(4S)-1-[[3-[[4-[1-(2,6-dioxo-3-piperidyl)-2-oxo-3-(2,2,2-trifluoroethyl)benzimidazol-5-yl]piperidine-1-carbonyl]amino]phenyl]-methylsulfonyl]-2,2-dimethyl-4-piperidyl]amino]phenyl]thiophene-2-carboxylic acid]
